Here are results for two compounds from patent US20210284622A1, “BIOACTIVE POLYMERS WITH ANTI=FOULING PROPERTIES FOR MEDICAL AND DENTAL USES” (OREGON HEALTH & SCIENCE UNIVERSITY, priority 2020, published 2021).

What all share (type): cell-based
The test system of one experiment is GtfC mutants. Description: Crystal violet biofilm quantification in four strains of S. mutans (Gtf mutants). The conditions noted are these: FIG. 5. As for the experimental part:
FIG. 5 represents quantification of biofilms grown using four strains of S. mutans and colorimetrically quantified CV (Absat562 nm) to quantity the biofilm. Note that AGTF denotes which Gtf enzyme(s) are not expressed by the strain.
(§1) Eight G43 derivatives (G43, G43TEG, G43-TEG-MMA, G43-A2-OMe, G43-A-NH2, G43B-Furan, G43-B1-OMe, G43-C3-OMe, and G16) were synthesized de novo screened against S. mutans for biofilm inhibition. The compounds were dissolved in DMSO and serially diluted in H2O at 50 μM, then added to S. mutans cultures (TH medium with sucrose) & incubated for 96 h at 37° C. aerobically. Biofilms were assayed for bacterial viability (metabolic activity via a renilla-reporter S. mutans—Merritt2016). Biofilms were stained with crystal violet (CV), washed 3× with DI H2O, and then the CV was volumetrically extracted to colorimetrically determine the quantity of biofilm. Next, biofilms were washed 3× with DI H2O, then sterilized with EtOH, azeotropically dried. Insoluble biofilm was chemically digested by 1) methylation, 2) acid depolymerization, 3) reduction, and 4) acylation, resulting in methylated alditol acetates for polysaccharide connectivity determination by GC/MS. Results were analyzed with one-way ANOVA/Tukey's test (α=0.05).

The test system of experiment [1] is S. mutans. Description: Biofilm quantification by crystal violet (CV) stain, Abs at 562 nm. The conditions noted are these: 50 μM, FIGS. 3 & 4. The procedure: FIG. 3 Represents quantification of biofilms grown under different inoculants (50 μM) using crystal violet (CV) stain: (top) Biofilm morphology as visualized after CV stain, (chart) Colorimetrically quantified CV (Absat562 nm) to quantity the biofilm.
FIG. 4 represents quantification of biofilms grown under different inoculants (50 μM) using crystalviolet (CV) stain: (top) Biofilm morphology as visualized after CVstain, (chart) Colorimetrically quantified CV (Absat562 nm) to quantity the biofilm.
as §1, with “Insoluble biofilm was chemically digested by 1) methylation, 2) acid depolymerization, 3) reduction, and 4) acylation, resulting in methylated alditol acetates for polysaccharide connectivity determination by GC/MS.” left out

Experiment [2] concerns S. mutans. Put plainly: Minimum inhibitory concentration (MIC) against S. mutans, serial dilution, TH medium plus sucrose, 96 h. The conditions noted are these: Streptococcus mutans, S. mutans in TH medium plus sucrose, 37° C. aerobically. The procedure: Methods: G43, and its non-binding counterpart, G43TEG (N-(2-carbamoyl-4-(2-(2-(2-(2-hydroxyethoxy)ethoxy)ethoxy)ethoxy)phenyl)-5-nitrobenzo[b]thiophene-2-carboxamide), were synthesized and minimum inhibitory concentration (MIC) against S. mutans was established. The compounds were serially diluted in DMSO to 400, 200, 100, 50, 25 and 12.5 then added to S. mutans grown in TH medium plus sucrose. Cultures were incubated for 96 h at 37° C. aerobically. Supernatants with planktonic cells and biofilms were assayed separately for metabolic activity using S. mutans carrying a renilla luciferase reporter. G43 or G43TEG were added at 4 wt % into 50:50 BisGMA/TEGDMA and 70 wt % filler. 0.2 wt % BAPO, 0.05 wt % BHT were used as the photoinitiator and inhibitor, respectively. Polymerization kinetics were assessed for 5 min by near-IR in discs (4 mm by 10 mm diameter), cured with a LED light source (700 mW/cm2, 30 s). Discs were then immersed in deionized H2O for 7 days, with extracted monomers collected every 24 h. Results were analyzed with one-way ANOVA/Tukey's test (α=0.05). […] Polymerizations of dental resins were relatively unaffected by 4% G43 or G43TEG (FIG. 1).

Experiment [3] has as its system S. mutans. Put plainly: Biofilm bacterial viability by metabolic activity, renilla luciferase reporter S. mutans. The conditions noted are these: at MIC, FIG. 1. From the text:
FIG. 2 represents S. mutans bacterial viability as measured using a metabolic activity via arenilla-reporter S. mutans(Merritt2016).
Methods: G43, and its non-binding counterpart, G43TEG (N-(2-carbamoyl-4-(2-(2-(2-(2-hydroxyethoxy)ethoxy)ethoxy)ethoxy)phenyl)-5-nitrobenzo[b]thiophene-2-carboxamide), were synthesized and minimum inhibitory concentration (MIC) against S. mutans was established. The compounds were serially diluted in DMSO to 400, 200, 100, 50, 25 and 12.5 then added to S. mutans grown in TH medium plus sucrose. Cultures were incubated for 96 h at 37° C. aerobically. Supernatants with planktonic cells and biofilms were assayed separately for metabolic activity using S. mutans carrying a renilla luciferase reporter. […] Polymerization kinetics were assessed for 5 min by near-IR in discs (4 mm by 10 mm diameter), cured with a LED light source (700 mW/cm2, 30 s). […] Results were analyzed with one-way ANOVA/Tukey's test (α=0.05). […]
Eight G43 derivatives (G43, G43TEG, G43-TEG-MMA, G43-A2-OMe, G43-A-NH2, G43B-Furan, G43-B1-OMe, G43-C3-OMe, and G16) were synthesized de novo screened against S. mutans for biofilm inhibition. […] Biofilms were stained with crystal violet (CV), washed 3× with DI H2O, and then the CV was volumetrically extracted to colorimetrically determine the quantity of biofilm. […] Results were analyzed with one-way ANOVA/Tukey's test (α=0.05).
On the technique in general: A reporter such as luciferase makes a cellular process visible.

The structures appear in SMILES notation.

For orientation: MIC means the lowest concentration that inhibits growth of the organism.

Take `NC(=O)c1cc(OCCOCCOCCOCCO)ccc1NC(=O)c1cc2cc([N+](=O)[O-])ccc2s1` [G43TEG, N-(2-carbamoyl-4-(2-(2-(2-(2-hydroxyethoxy)ethoxy)ethoxy)ethoxy)phenyl)-5-nitrobenzo[b]thiophene-2-carboxamide]: the “biofilm reduction in GtfC mutants” value with GtfC mutants was “biofilm reduction efficacy”. In the experiment on S. mutans [1], the biofilm production result is given as “significantly reduced”. Also, in the experiment on S. mutans [2], the MIC lay in the range of 25 to 50 µM. In addition, the “reduction of viable biofilm cells” value with S. mutans [3] was “significant reduction”.

On to `NC(=O)c1ccccc1NC(=O)c1cc2cc([N+](=O)[O-])ccc2s1` [G43, N-(2-carbamoylphenyl)-5-nitrobenzo[b]thiophene-2-carboxamide], for which the “biofilm reduction in GtfC mutants” value with GtfC mutants was “biofilm reduction efficacy”. Further, the biofilm production result with S. mutans [1] was “significantly reduced”. In addition, the minimum inhibitory concentration (MIC) in the experiment on S. mutans [2] lay within 25 to 50 µM. In addition, the “reduction of viable biofilm cells” value in the experiment with S. mutans [3] is given as “significant reduction”.
